Results as given in patent US20240390311A1 (priority 2020, published 2024).
Read-outs that look alike come from different tables or passages of the source.

Tests used:
MHV-1 = assay type: in vivo, A/J mice; conditions: for body weight loss / death rate / disease (illness) scores / lung coefficient index: Example 2, in water: GABA 2 mg/mL, homotaurine 0.25 mg/mL, baclofen 0.25 mg/mL, vs untreated controls
SARS-CoV-2 [1] = conditions: NIH (NCATS) screen; cited from earlier work
[2] = system: autoreactive Th1 and Th17 cells; conditions: cited from earlier work; for disease progression in mouse models of type 1 diabetes, multiple sclerosis, and rheumatoid arthritis: administration of GABA or homotaurine; for CD4+ and CD8+ Treg responses / autoreactive Th1 and Th17 cells: in vivo administration
[3] = cited from earlier work
SARS-CoV-2 [4] = assay type: in vivo, K18-hACE2 mice
SARS-CoV-2 [5] = assay type: in vivo, K18-hACE2 mice; conditions: for mice surviving on days 7-8 post-infection: control 20%
[6] = hundreds of epilepsy patients, long-term studies
[7] = GABA 2 mg/mL treated vs untreated infected mice
[8] = GABA 2 mg/mL vs untreated infected mice, p<0.001
[9] = GABA-treated vs SC group, no statistically significant difference

**Q.** With `NCC(CC(=O)O)c1ccc(Cl)cc1` (stereo not drawn) [Baclofen, baclofen] as the compound, how does the body weight loss (MHV-1) read?
**A.** The body weight loss was “did not significantly decrease”.

**Q.** And the death rate (MHV-1)?
**A.** The death rate was “did not significantly decrease”.

**Q.** What about the “disease (illness) scores” value (MHV-1) of the same compound?
**A.** Its value is “slight but significant ability to reduce”.

**Q.** And the lung coefficient index (MHV-1)?
**A.** The lung coefficient index was “did not significantly decrease”.

**Q.** With `NCCCC(=O)O` [GABA, gamma-aminobutyric acid] as the compound, how does the “SARS-CoV-2 interaction with its cellular receptor” value (SARS-CoV-2 [1]) read?
**A.** Its value is “did not interfere”.

**Q.** And the SARS-CoV-2 replication (SARS-CoV-2 [1])?
**A.** The SARS-CoV-2 replication was “did not interfere”.

**Q.** And the “disease progression in mouse models of type 1 diabetes, multiple sclerosis, and rheumatoid arthritis” value [2]?
**A.** The value was “inhibits”.

**Q.** And the “CD4+ and CD8+ Treg responses” value [2]?
**A.** Its value is “promoting”.

**Q.** And the “autoreactive Th1 and Th17 cells” value [2]?
**A.** The value was “inhibits”.

**Q.** What about the body weight loss (MHV-1) of the same compound?
**A.** Its body weight loss is “significantly reduced”.

**Q.** What about the death rate (MHV-1) of the same compound?
**A.** The death rate was “significantly reduced”.

**Q.** What about the “disease (illness) scores” value (MHV-1) of the same compound?
**A.** The value was “significantly reduced”.

**Q.** And the “highest average illness score” value (MHV-1; GABA 20 mg/ml immediately after inoculation, day 7 post-infection, scale 0-5)?
**A.** Its value is 1.6.

**Q.** What about the “body weight at 14 days post-infection, of starting weight” value (MHV-1; GABA 20 mg/ml starting 3 days post-infection) of the same compound?
**A.** Its value is 90%.

**Q.** What about the “maximum mean illness score” value (MHV-1; GABA 20 mg/ml starting 3 days post-infection, scale 0-5) of the same compound?
**A.** The value was 2.5.

**Q.** What about the mice that died (MHV-1; GABA 20 mg/ml starting 3 days post-infection, up to 14 days (death on day 9)) of the same compound?
**A.** Its mice that died is 1/9.

**Q.** What about the “average body weight below starting weight 14 days post-infection” value (MHV-1; GABA 20 mg/ml starting immediately after MHV-1 inoculation) of the same compound?
**A.** Its value is 7%.

**Q.** What about the mice that died (MHV-1; GABA 20 mg/ml starting immediately after MHV-1 inoculation, up to 14 days, control 3/9 survived) of the same compound?
**A.** The mice that died was “none”.

**Q.** What about the “ability to reduce seizures” value [3, 6] of the same compound?
**A.** The value was “no clinical benefit”.

**Q.** And the adverse effects [3, 6]?
**A.** The adverse effects was “no adverse effects”.

**Q.** What about the safety ([3]; phase Ib GABA oral dosing study) of the same compound?
**A.** Its safety is “safe”.

**Q.** What about the “serum GM-CSF level” value (SARS-CoV-2 [4]; [7]) of the same compound?
**A.** Its value is “not found to have a statistically significant difference”.

**Q.** What about the “serum IFNα level” value (SARS-CoV-2 [4]; [7]) of the same compound?
**A.** Its value is “not found to have a statistically significant difference”.

**Q.** And the “serum IFNβ level” value (SARS-CoV-2 [4]; [7])?
**A.** Its value is “not found to have a statistically significant difference”.

**Q.** What about the “serum IFNγ level” value (SARS-CoV-2 [4]; [7]) of the same compound?
**A.** Its value is “not found to have a statistically significant difference”.

**Q.** And the “serum IL-12 level” value (SARS-CoV-2 [4]; [7])?
**A.** The value was “not found to have a statistically significant difference”.

**Q.** And the “serum IL-10 levels” value (SARS-CoV-2 [4]; [8])?
**A.** The value was “further significantly elevated”.

**Q.** What about the “serum IP-10 (CXCL10) levels” value (SARS-CoV-2 [4]; [8]) of the same compound?
**A.** Its value is “significantly reduced”.

**Q.** What about the “TNFα production (serum)” value (SARS-CoV-2 [4]; GABA 2 mg/mL vs untreated infected, p<0.001) of the same compound?
**A.** The value was “significantly mitigated”.

**Q.** What about the “mice with detectable IFNβ levels” value (SARS-CoV-2 [4]; GABA 2 mg/mL, 1/10 in healthy and infected control groups) of the same compound?
**A.** Its value is 3/10.

**Q.** What about the “mice with high levels of IFNγ” value (SARS-CoV-2 [4]; GABA 2 mg/mL, 3/10 in untreated infected group) of the same compound?
**A.** Its value is 1/10.

**Q.** What about the “median and mean levels of IFNα” value (SARS-CoV-2 [4]; GABA treated vs. untreated infected group, p=0.14) of the same compound?
**A.** Its value is “slightly elevated”.

**Q.** What about the “serum IL-1β level” value (SARS-CoV-2 [4]; [9]) of the same compound?
**A.** The value was “slightly reduced”.

**Q.** What about the “serum IL-6 level” value (SARS-CoV-2 [4]; [9]) of the same compound?
**A.** Its value is “slightly reduced”.

**Q.** And the “median and mean IFNγ levels” value (SARS-CoV-2 [4]; GABA-treated vs. untreated infected mice, p=0.25)?
**A.** Its value is “reduced”.

**Q.** And the “serum CCL2 levels” value (SARS-CoV-2 [4]; GABA-treated vs. untreated-infected mice, p=0.07)?
**A.** The value was “tending to be lower”.

**Q.** What about the “serum CCL5 level” value (SARS-CoV-2 [4]; among HC, SC and GABA groups) of the same compound?
**A.** The value was “No statistically significant difference”.

**Q.** And the “serum CXCL1 level” value (SARS-CoV-2 [4]; among HC, SC and GABA groups)?
**A.** The value was “No statistically significant difference”.

**Q.** And the “mice survived at end of study on day 7” value (SARS-CoV-2 [5]; Example 4, GABA 2 mg/mL started 2 days post-infection, control 22%, p=0.004)?
**A.** The value was 88%.

**Q.** And the “longitudinal mean illness scores” value (SARS-CoV-2 [5]; Example 4, GABA 2 mg/mL started 2 days post-infection, overall p=0.002)?
**A.** Its value is “reduced”.

**Q.** What about the “mice that died during the 7-day observation period” value (SARS-CoV-2 [5]; Trial 1, GABA 0.2 mg/mL in water, control 3/5 died) of the same compound?
**A.** Its value is “none”.

**Q.** And the “mice surviving on days 7-8 post-infection” value (SARS-CoV-2 [5]; Trial 2, GABA 0.2 mg/mL, p=0.004)?
**A.** Its value is 80%.

**Q.** What about the “mice surviving on days 7-8 post-infection” value (SARS-CoV-2 [5]; Trial 2, GABA 2 mg/mL, p=0.018) of the same compound?
**A.** Its value is 80%.

**Q.** And the illness scores (SARS-CoV-2 [5]; Trial 2, GABA 0.2 or 2.0 mg/mL in water from infection, vs control)?
**A.** Its illness scores is “significantly reduced”.

**Q.** Which “disease progression in mouse models of type 1 diabetes, multiple sclerosis, and rheumatoid arthritis” value [2] does the source give for `NCCCS(=O)(=O)O` [homotaurine] here?
**A.** The value was “inhibits”.

**Q.** What about the “CD4+ and CD8+ Treg responses” value [2] of the same compound?
**A.** The value was “promoting”.

**Q.** What about the “autoreactive Th1 and Th17 cells” value [2] of the same compound?
**A.** The value was “inhibits”.

**Q.** What about the body weight loss (MHV-1) of the same compound?
**A.** The body weight loss was “significantly reduced”.

**Q.** And the death rate (MHV-1)?
**A.** The death rate was “significantly reduced”.

**Q.** And the “disease (illness) scores” value (MHV-1)?
**A.** Its value is “significantly reduced”.

**Q.** And the lung coefficient index (MHV-1)?
**A.** Its lung coefficient index is “significantly reduced”.
